# Entries after “also recorded” stand apart in the source; their conditions may differ.
# What was measured:
# [1] = from prescribing information; cited from earlier work
# [2] = Next-day driving performance on the CRCDS automobile driving simulator after a bedtime dose; type: in vivo, human; settings: bedtime dose tasimelteon 20 mg or zopiclone 7.5 mg
# Method: In this study, 48 healthy volunteers operate an automobile driving simulator the moming after being administered a bedtime dose of tasimelteon 20 mg, zopiclone 7.5 mg, or placebo. Volunteers are instructed to operate the driving simulator for about one hour with a speed of 55 mph while maintaining lane position.
# Driving performance is assessed by a number of validated measures, including standard deviation from lateral position (SDLP), a measure of lane weaving.
# An SDLP of 4.4 cm as compared to control is considered equivalent to the driving impairment associated with a blood alcohol content (BAC) of 0.05%, the threshold for drunk driving in many countries.
# [3] = Tasimelteon jet lag disorder (JLD) clinical program; type: in vivo, human; settings: individuals experiencing circadian advances of five to eight hours
# [4] = preclinical models of acute phase-shifting and chronic re-entrainment; cited from earlier work
# [5] = 10 mg, 20 mg, 50 mg and 100 mg daily doses; 5-hour advance in sleep-wake cycle; cited from earlier work
smiles,measurement,setting,value
Cc1ccc(-n2nccn2)c(C(=O)N2CCN(c3nc4cc(Cl)ccc4o3)CC[C@H]2C)c1 [BELSOMRA],driving performance in clinical studies (in words),[1],clinically meaningful impaired driving performance in some subjects
CN1CCN(C(=O)OC2c3nccnc3C(=O)N2c2ccc(Cl)cn2)CC1 (stereo not drawn) [zopiclone],SDLP Difference (least squares means) vs Placebo,"[2]; 48 healthy volunteers, driving simulator 9 hours post-dose, about one hour at 55 mph",4.14 cm
same,next-day driving impairment compared to placebo (in words),[2]; evaluated nine hours after dosing,does significantly impair driving ability; also recorded: meaningful and significant effect on lane weaving
CCC(=O)NC[C@@H]1C[C@H]1c1cccc2c1CCO2 [tasimelteon],benefit in jet lag disorder (in words),[3],significant benefits
same,chronobiotic activity (in words),[4],potent chronobiotic activity
same,shifting dim light melatonin onset and sleep efficacy relative to placebo (in words),[5],positive outcomes

# Reference: patent US20240226056A1, “Sleep or Post-Sleep Performance” (Vanda Pharmaceuticals Inc., priority 2018, published 2024)
